From patent publication US8871738B2, “Fused bicyclic oxazolidinone CETP inhibitor” (Merck Sharp & Dohme Corp., priority 2011, dated 2014)

How the values were obtained:
[1] = patients treated with anacetrapib along with baseline statin therapy compared with just a statin; cited from earlier work
[2] = target: endogenous CETP from serum (Homo sapiens (Human), UniProt P11597); assay: RTA assay in 95% human serum (CETP-catalyzed CE and TG transfer, endogenous CETP); format: biochemical; conditions: RTA assay in 95% human serum; read-out: IC50
endogenous CETP from serum, sequence (P11597 18-493 limits assumed): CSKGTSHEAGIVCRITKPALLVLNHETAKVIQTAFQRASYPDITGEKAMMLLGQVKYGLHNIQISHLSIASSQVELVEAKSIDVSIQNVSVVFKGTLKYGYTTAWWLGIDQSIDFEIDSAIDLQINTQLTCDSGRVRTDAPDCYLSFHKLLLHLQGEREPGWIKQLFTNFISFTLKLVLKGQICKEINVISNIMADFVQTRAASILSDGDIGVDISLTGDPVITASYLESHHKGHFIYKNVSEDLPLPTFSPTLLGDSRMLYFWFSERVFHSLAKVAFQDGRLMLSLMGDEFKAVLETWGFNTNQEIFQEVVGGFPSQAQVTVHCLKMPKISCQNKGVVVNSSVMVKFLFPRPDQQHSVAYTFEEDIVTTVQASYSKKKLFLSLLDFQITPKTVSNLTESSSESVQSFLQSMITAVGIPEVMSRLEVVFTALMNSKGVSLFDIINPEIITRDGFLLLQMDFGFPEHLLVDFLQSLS

Row | SMILES | decrease of LDL-C [1] | increase of HDL-C [1] | IC50 [2]
1 | COc1cc(F)c(C(C)C)cc1-c1ccc(C(F)(F)F)cc1CN1C(=O)O[C@H](c2cc(C(F)(F)F)cc(C(F)(F)F)c2)[C@@H]1C [anacetrapib] | 40% | 138% | 
2 | COc1ccc(-c2ccc(C(=O)O)cc2C)cc1-c1ncc(C(F)(F)F)cc1[C@@H]1C=C[C@H]2[C@@H](c3cc(C(F)(F)F)cc(C(F)(F)F)c3)OC(=O)N12 [Example 68, 3′-(3-((1R,5S,7aS)-1-(3,5-bis(trifluuoromethyl)phenyl)-3-oxo-1,3,5,7a-tetrahydropyrrolo[1,2-c]oxazol-5-yl)-5-(trifluoromethyl)pyridin-2-yl)-4′-methoxy-2-methyl-[1,1′-biphenyl]-4-carboxylic acid] |  |  | 424 nM
